Earlier results, collected in patent US6569457B2, “Enteric coated pharmaceutical tablet and method of manufacturing” (priority 1998, dated 2003).

In the case of `O=c1[nH]cnc2c1ncn2C1CCC(CO)O1` (stereo not shown) [ddl, 2′,3′-dideoxyinosine], the “degradation at acidic pH” value is given as “degrades rapidly”.
